Laboratory results reported in patent US20070128217A1 (priority 2003, published 2007).

Tests used:
[1] = system: control sera (pooled serum of ten healthy LUMC hospital workers; commercial negative donor pooled serum from the Dutch bloodbank); assay type: binding, human; design: Binding of Control serum LUMC to linear peptides / Binding of Control serum Blood-bank to linear peptides / Binding of Control serum LUMC to looped peptides / Binding of Control Serum Blood-Bank to Looped peptides / Binding of Control serum LUMC to linear peptides of the protein M of SARS-CoV Urbani / Binding of Control serum Blood-bank to linear peptides of the protein M of SARS-CoV Urbani / Binding of Control serum LUMC to looped peptides of the protein M of SARS-CoV Urbani / Binding of Control Serum Blood-Bank to Looped peptides of the protein M of SARS-CoV Urbani: unit not given here
[2] = system: rabbit serum obtained by immunizing a rabbit with the SARS-CoV strain Frankfurt 1; assay type: binding; design: Binding of a rabbit serum to linear peptides / Binding of a rabbit serum to looped peptides / Rabbit serum linear peptides / Rabbit serum looped peptides / Binding of a rabbit serum to linear peptides of protein N of SARS-CoV Urbani (Rabbit serum linear peptides) / Binding of a rabbit serum to looped/cyclic peptides of protein N of SARS-CoV Urbani (Rabbit serum looped peptides): unit not given here

| Sequence | Binding of Control Serum Blood-Bank to Looped peptides [1] | Binding of Control serum Blood-bank to linear peptides [1] | Binding of Control serum LUMC to linear peptides [1] | Binding of Control serum LUMC to looped peptides [1] | Binding of a rabbit serum to linear peptides [2] | Binding of a rabbit serum to looped peptides [2] | Rabbit serum linear peptides [2] | Rabbit serum looped peptides [2] | further results |
| --- | --- | --- | --- | --- | --- | --- | --- | --- | --- |
| QIGGYSEDRHSGVKD | 0.3 | 0.3 | 0.5 | 0.4 | 0.1 | 0.5 |  |  |  |
| ATFFIFNKLVKDPPN | 0.8 | 0.5 | 0.5 | 0.8 | 0.1 | 0.6 |  |  |  |
| SLVKPTVYVYSRVKN | 0.7 | 0.7 | 1.0 | 0.8 | 0.3 | 0.6 |  |  |  |
| ADNKFALTCTSTHFA | 0.7 | 0.8 | 0.9 | 0.9 |  |  | 0.7 | 0.2 |  |
| CWHTHNYDYCIPYNS | 0.6 | 0.6 | 0.7 | 0.6 | 0.1 | 0.7 |  |  |  |
| VNVSLVKPTVYVYSR | 0.6 | 0.6 | 0.8 | 0.8 | 0.4 | 0.6 |  |  |  |
| FFTLGSITAQPVKID | 0.2 | 0.5 | 0.5 | 0.3 | 1.1 | 0.0 |  |  |  |
| MDPIYDEPTTTTSVP | 0.3 | 0.6 | 0.5 | 0.3 | 0.1 | 0.3 |  |  |  |
| PLADNKFALTCTSTH | 0.6 | 0.8 | 0.5 | 0.7 |  |  | 1.1 | 0.0 |  |
| PTVYVYSRVKNLNSS | 1.1 | 0.8 | 0.5 | 0.8 | 0.7 | 0.7 |  |  |  |
| GRCDIKDLPKEITVA |  |  |  |  |  |  | 0.0 | 0.1 | Binding of Control Serum Blood-Bank to Looped peptides of the protein M of SARS-CoV Urbani [1]: 1.0; Binding of Control serum Blood-bank to linear peptides of the protein M of SARS-CoV Urbani [1]: 0.5; Binding of Control serum LUMC to linear peptides of the protein M of SARS-CoV Urbani [1]: 0.1; Binding of Control serum LUMC to looped peptides of the protein M of SARS-CoV Urbani [1]: 0.9 |
| FHPLADNKFALTCTS | 0.8 | 0.8 | 0.8 | 0.8 |  |  | 0.4 | 0.2 |  |
| IDNASPASTVHATAT | 0.7 | 0.8 | 0.7 | 0.6 | 0.5 | 0.3 |  |  |  |
| KLNTDHAGSNDNIAL |  |  |  |  |  |  | 0.4 | 0.3 | Binding of Control Serum Blood-Bank to Looped peptides of the protein M of SARS-CoV Urbani [1]: 1.0; Binding of Control serum Blood-bank to linear peptides of the protein M of SARS-CoV Urbani [1]: 0.9; Binding of Control serum LUMC to linear peptides of the protein M of SARS-CoV Urbani [1]: 0.7; Binding of Control serum LUMC to looped peptides of the protein M of SARS-CoV Urbani [1]: 0.9 |
| NGTITVEELKQLLEQ |  |  |  |  |  |  |  |  | Binding of Control Serum Blood-Bank to Looped peptides of the protein M of SARS-CoV Urbani [1]: 0.6; Binding of Control serum Blood-bank to linear peptides of the protein M of SARS-CoV Urbani [1]: 0.7; Binding of Control serum LUMC to linear peptides of the protein M of SARS-CoV Urbani [1]: 0.5; Binding of Control serum LUMC to looped peptides of the protein M of SARS-CoV Urbani [1]: 0.8; Recognition of the peptide by the rabbit serum [2]: recognized |
| IFNKLVKDPPNVQIH | 0.6 | 1.1 | 1.0 | 0.6 | 0.1 | 0.6 |  |  |  |

| Sequence | Binding of Control Serum Blood-Bank to Looped peptides [1] | Binding of Control serum Blood-bank to linear peptides [1] | Binding of Control serum LUMC to linear peptides [1] | Binding of Control serum LUMC to looped peptides [1] | Binding of a rabbit serum to linear peptides [2] | Binding of a rabbit serum to looped peptides [2] | Rabbit serum linear peptides [2] | Rabbit serum looped peptides [2] | further results |
| --- | --- | --- | --- | --- | --- | --- | --- | --- | --- |
| INCQDPAGGALIARC | 0.9 | 1.1 | 0.6 | 0.7 |  |  | 0.5 | 0.6 |  |
| GYSEDRHSGVKDYVV | 0.6 | 0.8 | 0.8 | 0.6 | 0.1 | 0.3 |  |  |  |
| VYVYSRVKNLNSSEG | 0.8 | 0.5 | 0.8 | 0.8 | 0.3 | 0.4 |  |  |  |
| TTKLVVILRIGTQVL | 0.6 | 0.3 | 0.3 | 0.7 |  |  |  |  | Recognition of the peptide by the rabbit serum [2]: recognized |
| GGIAIAMACIVGLMW |  |  |  |  |  |  | 0.2 | 0.3 | Binding of Control Serum Blood-Bank to Looped peptides of the protein M of SARS-CoV Urbani [1]: 0.8; Binding of Control serum Blood-bank to linear peptides of the protein M of SARS-CoV Urbani [1]: 0.8; Binding of Control serum LUMC to linear peptides of the protein M of SARS-CoV Urbani [1]: 0.8; Binding of Control serum LUMC to looped peptides of the protein M of SARS-CoV Urbani [1]: 0.9 |
| YSEDRHSGVKDYVVV | 0.7 | 0.7 | 0.6 | 0.8 | 0.1 | 0.4 |  |  |  |
| NVSLVKPTVYVYSRV | 0.7 | 0.6 | 0.5 | 0.8 | 0.5 | 0.3 |  |  |  |
| SSIVRQLFKPLTKKN |  |  |  |  |  |  | 0.4 | 0.5 | Binding of Control Serum Blood-Bank to Looped peptides of the protein X3 of SARS-CoV Urbani [1]: 0.8; Binding of Control serum Blood-bank to linear peptides of the protein X3 of SARS-CoV Urbani [1]: 1.2; Binding of Control serum LUMC to linear peptides of the protein X3 of SARS-CoV Urbani [1]: 1.1; Binding of Control serum LUMC to looped peptides of the protein X3 of SARS-CoV Urbani [1]: 0.7 |
| LTKKNYSELDDEEPM |  |  |  |  |  |  | 0.2 | 0.4 | Binding of Control Serum Blood-Bank to Looped peptides of the protein X3 of SARS-CoV Urbani [1]: 0.8; Binding of Control serum Blood-bank to linear peptides of the protein X3 of SARS-CoV Urbani [1]: 0.9; Binding of Control serum LUMC to linear peptides of the protein X3 of SARS-CoV Urbani [1]: 0.6; Binding of Control serum LUMC to looped peptides of the protein X3 of SARS-CoV Urbani [1]: 1.0 |
| KKTTKLVVILRIGTQ | 0.6 | 0.4 | 0.5 | 0.8 |  |  |  |  | Recognition of the peptide by the rabbit serum [2]: recognized |
| THNYDYCIPYNSVTD | 0.7 | 0.5 | 0.6 | 0.7 | 0.1 | 0.6 |  |  |  |
| RIGTQVLKTMSLYMA | 0.6 | 0.8 | 0.5 | 0.5 | 0.4 | 0.5 |  |  |  |
| LYHYQECVRGTTVLL | 0.7 | 0.6 | 0.6 | 0.6 |  |  | 0.6 | 0.3 |  |
| KDPPNVQIHTIDGSS | 1.1 | 0.3 | 0.3 | 1.1 | 0.1 | 0.9 |  |  |  |
| IVRQLFKPLTKKNYS |  |  |  |  |  |  | 0.4 | 0.6 | Binding of Control Serum Blood-Bank to Looped peptides of the protein X3 of SARS-CoV Urbani [1]: 0.9; Binding of Control serum Blood-bank to linear peptides of the protein X3 of SARS-CoV Urbani [1]: 0.9; Binding of Control serum LUMC to linear peptides of the protein X3 of SARS-CoV Urbani [1]: 0.8; Binding of Control serum LUMC to looped peptides of the protein X3 of SARS-CoV Urbani [1]: 0.9 |
